Laboratory results reported in patent US7670613B2, “Androgen modulators” (Pfizer Inc., priority 2004, dated 2010).
Substitutions are numbered along the chain they refer to. Where two headings read alike, the source gives them in different places.

Experiments:
androgen receptor = biological target: T1, androgen receptor (Homo sapiens, UniProt P10275, Q868H); test: AR antagonist cell assay (MDA-MB453-MMTV clone 54-19, luciferase reporter); format: cell-based; settings: 100 pM DHT, 17 hr, mean of multiple tests
T1 construct: a human breast tumor cell line expressing androgen receptor; endogenous in cells; host or cells: MDA-MB453-MMTV clone 54-19 (only the MMTV-luciferase reporter was transfected)
T1 sequence (P10275 1-920 Q868H): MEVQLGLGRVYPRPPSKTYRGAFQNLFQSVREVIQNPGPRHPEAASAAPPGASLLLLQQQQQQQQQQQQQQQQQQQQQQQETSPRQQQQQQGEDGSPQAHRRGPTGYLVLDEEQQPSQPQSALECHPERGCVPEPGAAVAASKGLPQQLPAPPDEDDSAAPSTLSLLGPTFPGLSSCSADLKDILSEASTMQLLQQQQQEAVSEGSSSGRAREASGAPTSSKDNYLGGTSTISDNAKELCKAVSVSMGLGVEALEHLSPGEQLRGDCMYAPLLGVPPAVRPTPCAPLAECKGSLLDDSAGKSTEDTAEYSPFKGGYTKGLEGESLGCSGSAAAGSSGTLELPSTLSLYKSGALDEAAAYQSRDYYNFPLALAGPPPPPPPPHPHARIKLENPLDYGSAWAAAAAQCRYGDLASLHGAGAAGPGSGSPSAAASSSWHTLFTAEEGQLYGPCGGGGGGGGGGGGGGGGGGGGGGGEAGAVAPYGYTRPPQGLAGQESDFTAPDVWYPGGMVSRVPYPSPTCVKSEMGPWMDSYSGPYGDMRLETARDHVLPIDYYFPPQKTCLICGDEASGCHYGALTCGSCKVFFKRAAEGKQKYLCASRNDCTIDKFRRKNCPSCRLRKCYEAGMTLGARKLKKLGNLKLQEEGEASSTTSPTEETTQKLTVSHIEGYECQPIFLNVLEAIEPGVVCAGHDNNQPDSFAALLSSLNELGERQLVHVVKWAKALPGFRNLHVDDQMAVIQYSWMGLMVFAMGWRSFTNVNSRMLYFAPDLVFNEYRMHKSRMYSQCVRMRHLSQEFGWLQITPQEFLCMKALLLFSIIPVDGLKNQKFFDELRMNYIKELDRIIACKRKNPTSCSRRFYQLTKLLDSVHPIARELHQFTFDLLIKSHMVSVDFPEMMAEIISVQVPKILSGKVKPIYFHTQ
Experimental: The compounds ability to antagonize the effects of androgen on the androgen receptor were determined in a whole cell assay as described immediately below.
Experimental Procedure for AR Antagonist Cell Assay
This cell line is a stable transfected cell line with MDA-MB453 cell background (a human breast tumor cell line expressing androgen receptor). A MMTV minimal promoter containing ARE was first cloned in front of a firefly luciferase reporter gene. Then the cascade was cloned into transfection vector pUV120puro. Electroporation method was used for transfecting MDA-MB-453 cell. Puromycin resistant stable cell line was selected.
Cell Culture Media and Reagents:
Culture medium: DMEM (high glucose, Gibco cat #: 11960-044), 10% FBS, and 1% L-glutamine
Plating medium: DMEM (phenol red free), 10% charcoal treated HyClone serum, 1% L-glutamine
Assay medium: DMEM (phenol red free), 1% charcoal treated HyClone serum, 1% L-glutamine, and 1% penicillin/streptomycin
3× luciferase buffer: 2% beta-mercaptoethanol, 0.6% ATP, 0.0135% luciferine in cell lysis buffer
• 1. Cells are maintained in culture medium, splitting cells when they reach 80-90% confluence • 2. To test compounds, 10,000 cells/well are plated to opaque 96 cell culture plate in 100 ul/well plating medium, culture for overnight at 37° C. in cell culture incubator • 3. Carefully remove plating medium, then add 80 ul/well of pre-warmed assay medium, add 10 ul/well testing compound (final concentration at) 1000 nM, 200 nM, 40 nM, 8 nM, 1.6 nM, and 0.32 nM), incubate at 37° C. for 30 minutes • 4. Add 10 ul/well freshly prepared DHT (final concentration at 100 pM) to each well, incubate at 37° C. for 17 hr (overnight) • 5.
The results are reported as the mean of multiple tests as described below (the numbers of tests are indicated in the footnote). N.D. denotes that the compound was not tested.

hAR = biological target: T2, hAR (Homo sapiens, UniProt P10275); test: Competitive binding analysis on baculovirus/Sf9 generated hAR extracts with 3H-DHT tracer; settings: 1 nM 3H-DHT, one hour at 4° C., mean of multiple tests
T2 construct: made in house; host or cells: baculovirus/Sf9 insect cells
T2 sequence (P10275 1-920): T1 sequence (P10275 1-920 Q868H) with H868Q
Experimental: The description below describes how the assay was carried out.
Competitive binding analysis was performed on baculovirus/Sf9 generated hAR extracts in the presence or absence of different concentrations of test agent and a fixed concentration of ^3H-dihydrotestosterone (^3H-DHT) as tracer. This binding assay method is a modification of a protocol previously described (Liao S., et. al. J. Steroid Biochem. 20:11-17 1984). Briefly, progressively decreasing concentrations of compounds are incubated in the presence of hAR extract (Chang et al. P.N.A.S. Vol. 89, pp. […], 1992), hydroxylapatite, and 1 nM ^3H-DHT for one hour at 4° C. Subsequently, the binding reactions are washed three times to completely remove excess unbound ^3H-DHT. hAR bound ^3H-DHT levels are determined in the presence of compounds (i.e. competitive binding) and compared to levels bound when no competitor is present (i.e. maximum binding). Compound binding affinity to the hAR is expressed as the concentration of compound at which one half of the maximum binding is inhibited.

[1] = MDA-MB453-MMTV clone 54-19 cells, read-out: AR Cell IC50
[2] = AR Cell IC50, MDA-MB453-MMTV clone 54-19 cells
[3] = hAR extract, read-out: AR Binding IC50

SMILES	IC50 (androgen receptor; [1]) [nM]	IC50 (hAR; AR Binding IC50, hAR extract) [nM]	IC50 (androgen receptor; [2]) [nM]	IC50 (hAR; [3]) [nM]
CO[C@H]1CCC[C@H]1Oc1ccc(C#N)c(Cl)c1 (relative stereo) [Example 34, 2-Chloro-4-(cis-2-methoxy-cyclopentyloxy)-benzonitrile]	340	172		
CO[C@H]1CCCC[C@H]1Oc1ccc(C#N)c(Cl)c1 (relative stereo) [Example 36, 2-Chloro-4-(cis-2-methoxy-cyclohexyloxy)-benzonitrile]	300	123		
CO[C@H]1CCCC[C@@H]1Oc1ccc(C#N)c(C(F)(F)F)c1 (relative stereo) [Example 70]			10	158
CC1CCCC(Oc2ccc(C#N)cc2Cl)C1C (single isomer, unassigned) [Example 64, 3-Chloro-4-(2,3-dimethyl-cyclohexyloxy)-benzonitrile]	217			119
N#Cc1ccc(O[C@@H]2CCCC[C@H]2C#N)cc1C(F)(F)F (single isomer, unassigned) [Example 73, (trans)-(+)-4-(2-Cyano-cyclohexyloxy)-2-trifluoromethyl-benzonitrile]	196	61		
CC1(O)C[C@@H]2C[C@H]1CC2Oc1ccc(C#N)c(C(F)(F)F)c1 (stereo in doubt) [Example 1, 4-(5-Hydroxy-5-methyl-bicyclo[2.2.1]hept-2-yloxy)-2-trifluoromethyl-benzonitrile]			80	655
N#Cc1ccc(O[C@H]2CC3CC[C@@H]2C3)cc1Cl (stereo in doubt) [Example 24, 4-(R)-(Bicyclo[2.2.1]hept-2-yloxy)-2-chloro-benzonitrile]		106	15	
N#Cc1ccc(O[C@@H]2CC3CC[C@@H]2C3)cc1Cl (stereo in doubt) [Example 25, 4-(S)-(Bicyclo[2.2.1]hept-2-yloxy)-2-chloro-benzonitrile]	< 0.32	82		
N#Cc1ccc(O[C@H]2CCCCC2c2ccccc2)cc1Cl (stereo in doubt) [Example 33, 2-Chloro-4-(2-(S)-phenyl-(S)-cyclohexyloxy)-benzonitrile]	485	60		
N#Cc1ccc(O[C@H]2CCCC[C@@H]2c2ccccc2)cc1C(F)(F)F [Example 3, 4-(2-(R)-Phenyl-1-(S)-cyclohexyloxy)-2-trifluoromethyl-benzonitrile]	> 1000	73		
C=CCC1(Oc2ccc(C#N)c(C(F)(F)F)c2)CCCCC1 [Example 4, 4-(1-Allyl-cyclohexyloxy)-2-trifluoromethyl-benzonitrile]	> 1000	48		
CCC1CCCCC1Oc1ccc(C#N)c(C(F)(F)F)c1 (centres unmarked) [Example 7, 4-(2-Ethyl-cyclohexyloxy)-2-trifluoromethyl-benzonitrile]	329			125
C[C@@H]1CCCC[C@@H]1Oc1ccc(C#N)c(C(F)(F)F)c1 [Example 9, (1S,2R)-4-(2-Methyl-cyclohexyloxy)-2-trifluoromethyl-benzonitrile]	751	22		
N#Cc1ccc(OC2CCCC2)cc1C(F)(F)F [Example 10]	605			156
N#Cc1ccc(OC2CCCCC2)cc1C(F)(F)F [Example 11, 4-Cyclohexyloxy-2-trifluoromethyl-benzonitrile]			0.5	390
CC1CCCC(C)C1Oc1ccc(C#N)c(C(F)(F)F)c1 (centres unmarked) [Example 12, 4-(2,6-Dimethyl-cyclohexyloxy)-2-trifluoromethyl-benzonitrile]	> 1000	73		
CCCCC1(Oc2ccc(C#N)c(Cl)c2)CCCC1 [Example 21, 4-(1-Butyl-cyclopentyloxy)-2-chloro-benzonitrile]	> 1000			206
CCC1CCCCC1Oc1ccc(C#N)c(Cl)c1 (centres unmarked) [Example 22, 2-Chloro-4-(2-ethyl-cyclohexyloxy)-benzonitrile]	> 1000	71		
CC1CCC(Oc2ccc(C#N)c(Cl)c2)C1 (centres unmarked) [Example 23, 2-Chloro-4-(3-methyl-cyclopentyloxy)-benzonitrile]	202			145
